Source: patent US5057613A, “Novel thione dopamine beta hydroxylase inhibitors” (Merrell Dow Pharmaceuticals, priority 1987, dated 1991)

Key:
[1] = target: T1, dopamine beta-hydroxylase (DBH) (Bos taurus, UniProt P15101); test: in vitro inhibition of dopamine beta-hydroxylase (conversion of tyramine to octopamine, oxygen uptake by polarographic electrode); type: biochemical; conditions: pH 5, 20-40° C, preferably 37° C
T1 sequence (P15101 1-610): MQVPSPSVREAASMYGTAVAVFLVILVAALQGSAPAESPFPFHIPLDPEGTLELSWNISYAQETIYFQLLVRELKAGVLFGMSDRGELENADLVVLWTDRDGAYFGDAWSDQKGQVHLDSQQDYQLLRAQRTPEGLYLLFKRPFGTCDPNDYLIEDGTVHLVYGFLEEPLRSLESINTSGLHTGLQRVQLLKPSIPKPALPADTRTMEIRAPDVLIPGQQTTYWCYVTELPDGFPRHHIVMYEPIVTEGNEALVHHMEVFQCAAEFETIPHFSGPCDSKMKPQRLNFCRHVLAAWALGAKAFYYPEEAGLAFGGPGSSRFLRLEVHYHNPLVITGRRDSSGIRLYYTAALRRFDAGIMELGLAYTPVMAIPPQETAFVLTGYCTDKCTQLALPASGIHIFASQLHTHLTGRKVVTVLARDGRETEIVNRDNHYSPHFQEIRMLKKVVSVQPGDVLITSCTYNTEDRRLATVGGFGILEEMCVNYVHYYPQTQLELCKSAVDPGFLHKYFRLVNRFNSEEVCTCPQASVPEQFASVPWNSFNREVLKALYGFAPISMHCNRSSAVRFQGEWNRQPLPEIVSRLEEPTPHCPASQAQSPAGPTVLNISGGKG
Protocol: The DBH inhibitory compounds of this invention can readily be determined in vitro by standard and well known procedures for assaying conversion of tyramine to octopamine in the presence of dopamine beta-hydroxylase (DBH). Enzymatic oxygenation by DBH is determined in aqueous solution in the presence of molecular oxygen, an electron donor such as ascorbate, and the necessary cofactors for the enzyme at pH of 5 and a temperature of 20°-40° C., preferably 37° C. The test compound is added at the desired concentration, and the system is incubated. Activity is determined by measuring the oxygen uptake using a polarographic electrode and an oxygen monitor by the method of S. May, et al., J. Biol. Chem. 256, 2258 (1981). Inhibition is given in molar concentration of compound at which DBH activity was halved (IC50) when the test compounds were tested according to the above described procedure. The IC50 (expressed in micromolar units) data of some of the compounds of this invention are expressed in Table I.

DBH = test: in vivo DBH inhibition, heart dopamine level in spontaneously hypertensive rats; conditions: 50 mg/kg, IP, 6 hours post dose in SHR's; Control 0.015 ± .002; p < .001
Protocol: The compounds of this invention may also be tested for their in vivo DBH inhibiting property according to the procedure of Felice, Felice and Kessinger, J. Neurochem., 31, 1461-1465 (1978) wherein the effects on peripheral dopamine and norepinephrine levels are determined. In this test spontaneously hypertensive rats are dosed (i.p.) at 50 mg per kilogram of body weight and sacrificed six hours later. Average results, expressed in micrograms of dopamine (DA) per gram of heart tissue are determined with the difference between the control and the treated rats being the in vivo (DBH) inhibitory effect of the test compound.

[2] = tested on: spontaneously hypertensive rats (SHR's); test: in vivo antihypertensive effect, blood pressure in spontaneously hypertensive rats; conditions: 50 mg/kg, IP, Mean Difference ± Standard Deviation
Protocol: The ability of the compounds of this invention to lower blood pressure can be determined in vivo using spontaneously hypertensive rats (SHR's) according to standard and well known procedures. The test compound is administered intraperitoneally (ip) to rats and the blood pressure monitored continuously. Since DBH is a major enzyme in the synthetic pathway of the catecholamines, it would be expected that the presence of an inhibitor would act to decrease the amount of catecholamines produced, and thereby have an antihypertensive effect. The results of the testing for this antihypertensive effect are shown in Table I (MBP is mean blood pressure).

Row | Compound | IC50 [1] [nM] | Heart DA (dopamine per gram of heart tissue), treated (DBH) | Max Change MBP (mean blood pressure) [2] [mmHg]
1 | S=c1[nH]ccn1CCc1cccs1 [Compound 1, 1,3-Dihydro-1-[2-(2-thienyl)ethyl]-2H-imidazole-2-thione] | 120 | 0.038 ± .003 µg/g | -45 ± 17
2 | Sc1nccn1CCCc1cccs1 [Compound 2, 1,3-Dihydro-1-[3-(2-thienyl)propyl]-2H-imidazole-2-thione] | 1860 | – | –
